ChEMBL document CHEMBL5143570, “Development of naringenin-O-carbamate derivatives as multi-target-directed liagnds for the treatment of Alzheimer's disease” (Bioorg Med Chem Lett, 2022)
Activity calls are given as the source filed them. The rule behind the calls is not given here.

Key:
Acetylcholinesterase [1] = target: T1, Acetylcholinesterase (Rattus norvegicus, UniProt P37136); experiment: Inhibition of rat cortex AChE using acetylthiocholine as substrate incubated for 15 mins by DTNB reagent based Ellman's method; assay type: tissue-based
T1 sequence (P37136 whole entry): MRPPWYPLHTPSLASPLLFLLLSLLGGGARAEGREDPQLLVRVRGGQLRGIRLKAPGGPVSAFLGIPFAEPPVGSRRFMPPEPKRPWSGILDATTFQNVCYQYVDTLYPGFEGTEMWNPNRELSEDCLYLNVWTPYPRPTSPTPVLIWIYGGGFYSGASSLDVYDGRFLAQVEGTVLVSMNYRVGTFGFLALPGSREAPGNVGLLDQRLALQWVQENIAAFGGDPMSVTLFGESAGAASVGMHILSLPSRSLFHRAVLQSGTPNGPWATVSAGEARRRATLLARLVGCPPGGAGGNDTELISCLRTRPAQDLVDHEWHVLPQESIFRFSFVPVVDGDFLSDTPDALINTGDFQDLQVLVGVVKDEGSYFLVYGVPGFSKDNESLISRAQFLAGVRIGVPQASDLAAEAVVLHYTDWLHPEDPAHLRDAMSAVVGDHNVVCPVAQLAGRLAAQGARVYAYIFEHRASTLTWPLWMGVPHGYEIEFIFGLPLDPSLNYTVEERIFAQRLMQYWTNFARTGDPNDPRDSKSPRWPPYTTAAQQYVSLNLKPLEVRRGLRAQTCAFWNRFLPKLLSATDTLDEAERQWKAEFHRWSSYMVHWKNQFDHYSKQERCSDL

Rattus norvegicus = species: Rattus norvegicus; experiment: Selectivity index, ratio of IC50 for inhibition of rat serum butyrylcholine esterase to IC50 for inhibition of rat cortex AChE
Acetylcholinesterase [2] = target: T2, Acetylcholinesterase (Homo sapiens, UniProt P22303); experiment: Inhibition of human erythrocyte AChE using acetylthiocholine as substrate incubated for 15 mins by DTNB reagent based Ellman's method; assay type: cell-based
T2 sequence (P22303 whole entry): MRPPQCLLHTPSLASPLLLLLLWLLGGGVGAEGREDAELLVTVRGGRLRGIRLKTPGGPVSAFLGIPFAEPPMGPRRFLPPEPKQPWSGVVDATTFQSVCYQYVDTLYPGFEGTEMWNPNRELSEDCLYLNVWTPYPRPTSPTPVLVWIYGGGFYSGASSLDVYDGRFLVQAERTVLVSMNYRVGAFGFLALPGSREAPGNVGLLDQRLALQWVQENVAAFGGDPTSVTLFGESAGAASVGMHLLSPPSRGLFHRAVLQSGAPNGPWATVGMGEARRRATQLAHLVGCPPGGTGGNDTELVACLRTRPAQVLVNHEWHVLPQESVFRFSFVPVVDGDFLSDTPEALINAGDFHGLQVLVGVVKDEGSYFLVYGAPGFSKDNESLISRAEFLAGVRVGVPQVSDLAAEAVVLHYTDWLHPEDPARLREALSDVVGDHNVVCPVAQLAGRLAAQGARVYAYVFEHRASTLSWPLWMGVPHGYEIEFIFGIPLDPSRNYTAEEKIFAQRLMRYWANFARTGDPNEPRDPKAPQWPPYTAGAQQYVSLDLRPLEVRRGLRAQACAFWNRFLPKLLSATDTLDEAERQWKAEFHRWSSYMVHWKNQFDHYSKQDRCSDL

Cholinesterase = Cholinesterase (Homo sapiens, UniProt P06276); experiment: Inhibition of human serum BuChE using butyrylthiocholine as substrate incubated for 15 mins by DTNB reagent based Ellman's method; assay type: cell-free
Chain of Cholinesterase (P06276 whole entry): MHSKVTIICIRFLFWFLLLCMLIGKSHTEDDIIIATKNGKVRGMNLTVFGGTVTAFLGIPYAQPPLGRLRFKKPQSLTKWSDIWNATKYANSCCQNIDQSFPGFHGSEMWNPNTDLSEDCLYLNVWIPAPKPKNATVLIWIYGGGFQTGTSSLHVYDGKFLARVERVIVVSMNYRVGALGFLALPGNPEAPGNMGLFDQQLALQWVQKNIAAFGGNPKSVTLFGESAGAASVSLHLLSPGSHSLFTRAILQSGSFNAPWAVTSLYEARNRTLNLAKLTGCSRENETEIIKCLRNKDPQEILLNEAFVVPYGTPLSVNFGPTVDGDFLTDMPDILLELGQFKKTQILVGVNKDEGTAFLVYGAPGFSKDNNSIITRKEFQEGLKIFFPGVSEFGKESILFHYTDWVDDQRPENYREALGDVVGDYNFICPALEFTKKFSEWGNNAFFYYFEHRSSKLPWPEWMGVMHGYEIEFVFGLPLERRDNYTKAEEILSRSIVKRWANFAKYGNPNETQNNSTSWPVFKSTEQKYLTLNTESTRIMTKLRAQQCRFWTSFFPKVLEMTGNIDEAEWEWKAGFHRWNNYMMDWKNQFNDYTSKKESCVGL

Homo sapiens = species: Homo sapiens; experiment: Selectivity index, ratio of IC50 for inhibition of human serum BuChE to IC50 for inhibition of human erythrocyte AChE
[3] = target: Amyloid-beta precursor protein (Homo sapiens) (UniProt P05067); experiment: Inhibition of Cu2+-induced amyloid beta (1 to 42) (unknown origin) aggregation at 25 uM by thioflavin-T fluorescence method relative to control
Chain of Amyloid-beta precursor protein (Homo sapiens) (P05067 whole entry): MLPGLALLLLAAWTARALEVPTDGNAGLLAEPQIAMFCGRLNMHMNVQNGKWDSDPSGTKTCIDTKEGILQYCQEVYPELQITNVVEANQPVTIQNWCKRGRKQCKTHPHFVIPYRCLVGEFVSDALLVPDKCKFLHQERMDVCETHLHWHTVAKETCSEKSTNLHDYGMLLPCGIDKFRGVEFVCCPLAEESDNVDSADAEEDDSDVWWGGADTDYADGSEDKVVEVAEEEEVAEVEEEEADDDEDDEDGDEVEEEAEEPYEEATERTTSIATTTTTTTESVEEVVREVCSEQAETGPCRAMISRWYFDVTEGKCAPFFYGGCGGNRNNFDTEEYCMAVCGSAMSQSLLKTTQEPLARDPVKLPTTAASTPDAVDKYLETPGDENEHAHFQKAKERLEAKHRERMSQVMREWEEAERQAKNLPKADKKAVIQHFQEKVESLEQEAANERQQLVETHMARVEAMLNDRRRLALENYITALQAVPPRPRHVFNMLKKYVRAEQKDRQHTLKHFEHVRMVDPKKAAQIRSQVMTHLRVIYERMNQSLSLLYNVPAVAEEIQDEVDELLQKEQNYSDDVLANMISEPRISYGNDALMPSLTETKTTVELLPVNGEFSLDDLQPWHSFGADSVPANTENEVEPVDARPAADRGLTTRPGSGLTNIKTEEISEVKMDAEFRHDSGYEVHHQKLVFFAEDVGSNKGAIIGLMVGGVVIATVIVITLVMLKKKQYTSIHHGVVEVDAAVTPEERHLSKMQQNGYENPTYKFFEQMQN

Acetylcholinesterase [4] = target: T2, Acetylcholinesterase; experiment: Pseudo-irreversible inhibition of human AChE assessed as restoration of enzyme activity at 0.1 time of IC50 concentration incubated for 120 mins by dilution method relative to control; parameters: scale not given: the % may be the effect or the level left
[5] = target: Amyloid-beta precursor protein (Homo sapiens) (UniProt P05067); experiment: Inhibition of amyloid beta (1 to 42) (unknown origin) self-induced fibril formation at 25 uM incubated for 24 hrs by transmission electron microscopic analysis
[6] = Cytotoxicity against mouse HT-22 cells assessed as reduction in cell viability by MTT assay; assay type: toxicity, cell-based
[7] = Effect on tau protein expression in pRK5-GFP-Tau plasmid transfected mouse HT-22 cells assessed as reduction in fluorescence intensity at 5 uM incubated for 24 hrs by fluorescence microscopic analysis (reference value: 36.8); assay type: functional
[8] = Effect on tau protein expression in pRK5-GFP-Tau plasmid transfected mouse HT-22 cells assessed as reduction in fluorescence intensity at 10 uM incubated for 24 hrs by fluorescence microscopic analysis (reference value: 36.8); assay type: functional
[9] = Effect on tau protein expression in pRK5-GFP-Tau plasmid transfected mouse HT-22 cells assessed as reduction in fluorescence intensity at 20 uM incubated for 24 hrs by fluorescence microscopic analysis (reference value: 36.8); assay type: functional
HT-22 [10] = experiment: Effect on tau protein expression in pRK5-GFP-Tau plasmid transfected mouse HT-22 cells assessed as fluorescence intensity by measuring decrease in GFP level incubated for 24 hrs by western blot analysis; assay type: functional, cell-based; settings: dose 5-20 µM, DDE = dose-dependent effect
[11] = Effect on tau protein expression in pRK5-GFP-Tau P301L plasmid transfected mouse HT-22 cells assessed as reduction in fluorescence intensity at 10 uM by fluorescence microscopic analysis (reference value: 35.0); assay type: functional
[12] = Effect on tau protein expression in pRK5-GFP-Tau P301L plasmid transfected mouse HT-22 cells assessed as reduction in fluorescence intensity at 20 uM by fluorescence microscopic analysis (reference value: 35.0); assay type: functional
[13] = Effect on APP protein expression in pEGFP-N1-APP plasmid transfected mouse HT-22 cells assessed as decrease in fluorescence intensity at 5 uM incubated for 24 hrs by fluorescence microscopic analysis (reference value: 30.7); assay type: functional
[14] = Effect on APP protein expression in pEGFP-N1-APP plasmid transfected mouse HT-22 cells assessed as decrease in fluorescence intensity at 10 uM incubated for 24 hrs by fluorescence microscopic analysis (reference value: 30.7); assay type: functional
HT-22 [15] = experiment: Effect on APP protein expression in pEGFP-N1-APP plasmid transfected mouse HT-22 cells assessed as fluorescence intensity by measuring decrease in GFP level incubated for 24 hrs by western blot analysis; assay type: functional, cell-based; settings: dose 5-20 µM, DDE = dose-dependent effect
BV-2 = experiment: Cytotoxicity against mouse BV-2 cells assessed as increase in cell viability at 5 to 10 uM by MTT assay; assay type: toxicity, cell-based; settings: bv-2, 10 µM, dose 5-10 µM
PC-12 [16] = experiment: Cytotoxicity against rat PC-12 cells assessed as reduction in cell viability measured upto 40 uM incubated for 72 hrs by MTT assay; assay type: toxicity, cell-based; settings: pc-12, 72 h
PC-12 [17] = experiment: Neuroprotective activity against H2O2-induced cytotoxicity in rat PC-12 cells assessed as increase in cell viability at 10 uM by MTT assay relative to control; assay type: functional
[18] = Metal chelating activity assessed as Cu2+-compound complex formation by measuring maximum absorption wavelength shift in the presence of CuCl2 by UV-visible spectrometric analysis
[19] = Metal chelating activity assessed as Al3+-compound complex formation by measuring maximum absorption wavelength shift in the presence of AlCl3 by UV-visible spectrometric analysis
[20] = Inhibition of LPS-induced TNFalpha production in mouse BV-2 cells assessed as TNFalpha level at 5 uM by ELISA analysis; assay type: functional
[21] = Inhibition of LPS-induced TNFalpha production in mouse BV-2 cells assessed as TNFalpha level at 10 uM by ELISA analysis relative to control; assay type: functional
L02 [22] = experiment: Cytotoxicity against human L02 cells assessed as decrease in cell viability measured upto 20 uM by MTT assay; assay type: toxicity, cell-based; settings: l02, 20 µM
L02 [23] = experiment: Cytotoxicity against human L02 cells assessed as decrease in cell viability at 40 uM by MTT assay relative to control; assay type: toxicity, cell-based; settings: l02, 40 µM
L02 [24] = experiment: Hepatoprotective activity against H2O2-induced cytotoxicity in human L02 cells assessed as increase in cell viability at 10 uM by MTT assay; assay type: functional
L02 [25] = experiment: Hepatoprotective activity against H2O2-induced cytotoxicity in human L02 cells assessed as increase in cell viability at 20 uM by MTT assay; assay type: functional
[26] = Permeability of compound at 100 ug/mL by PAMPA-BBB assay

## CCN(C)C(=O)Oc1ccc(C2CC(=O)c3c(O)cc(OC(=O)N(C)CC)cc3O2)cc1 (stereo not given)
Acetylcholinesterase [1]
  IC50: 6.2 µM
Rattus norvegicus
  Ratio IC50: 4.9
Acetylcholinesterase [2]
  IC50: 9.7 µM
Cholinesterase
  IC50: 20.3 µM
Homo sapiens
  Ratio IC50: 2.1
[3]
  inhibition: 66.5%
Acetylcholinesterase [4]
  Activity: 81.7%
[5]
  inhibition: Active
[6]
  IC50: 289 µM
[7]
  Flu intensity: 25.9
[8]
  Flu intensity: 19
[9]
  Flu intensity: 6.48
HT-22 [10]
  Activity: Dde
[11]
  Flu intensity: 9.28
[12]
  Flu intensity: 3.88
[13]
  Flu intensity: 21.9
[14]
  Flu intensity: 15.5
HT-22 [15]
  Activity: Dde
BV-2
  Activity: Non-Toxic
PC-12 [16]
  Activity: Non-Toxic
PC-12 [17]
  Activity: 70.2%
[18]
  Activity: Active
[19]
  Activity: Active
[20]
  Activity: 848 pg/mL
[21]
  inhibition at 10 µM: 68.7%
L02 [22]
  Activity: Non-Toxic
L02 [23]
  Activity: 73.2%
L02 [24]
  Activity: 68.7%
L02 [25]
  Activity: 77.3%
[26]
  Papp at 100 ug/mL: 168 nm/s
